Laboratory results taken from paper PMC5131364, “Pharmacologic modulation of RORγt translates to efficacy in preclinical and translational models of psoriasis and inflammatory arthritis” (Scientific Reports, 2016).

What was measured:
RORβ = biological target: T1, RORβ (Homo sapiens, UniProt Q92753); experiment: 1-hybrid reporter assay in HEK293T cells (GAL4-RORβ); format: cell-based; conditions: HEK-293T
T1 construct: NP_008845, aa 201–459; expressed in transfected cells; host or cells: HEK293T
Method: The reporter assay was performed by transient co-transfection of HEK293T cells with pCMV-BD (Stratagene #211342) containing the GAL4 DNA-binding domain fused with full-length human RORγt (Genbank accession no. NP_001001523, aa 1–497), pFR-Luc reporter and pRL-CMV reporter (Promega #E2261) plus Carrier DNA (Clontech # 630440) using PEI solution (Sigma Aldrich cat# 40872-7) in a 96-well plate. […] Medium was removed and cells were lysed with Passive Lysis Buffer (Promega). Firefly luciferase buffer was then added and firefly luciferase luminescence was read on BMG LUMIstar OPTIMA luminescence plate reader. One second later, renilla luciferase buffer was then added and renilla luciferase luminescence was read to measure cell viability. For RORα and RORβ activity, similar assays were performed except cells were transfected with pCMV-BD-RORα (Genbank accession no. NP_599022, aa 305–556) or pCMV-BD-RORβ (Genbank accession no. NP_008845, aa 201–459).

[1] = test system: human γδ+ T cells in PBMCs; experiment: Human γδ+ T cell in vitro activation; format: cell-based; conditions: 168 h, IL-1β, IL-23 and IPP, 7 days, average, read-out: inhibition of the IL-17A+ γδ+ T cell population
Text: (§1) The following antibodies (anti-mouse or anti-human) were purchased from BD Biosciences (San Diego, CA) or eBioscience (San Diego, CA): anti-CD3-FITC (mouse 17A2 and human SK7), anti-CD4-allophycocyanin (APC), anti-CD4-PerCp, anti-CD4-FITC, anti-CD4-PE (mouse GK1.5 and human SK3), anti-CD44-PerCp (mouse IM7), anti-γδ TCR-FITC, anti-γδ TCR-PE (mouse GL3 and human B1), anti-CD62L-FITC (mouse MEL-14 and human SK11), anti-CD45RO-APC (human UCHL1), anti-CCR6-PE (human 11A9), anti-CD45-PerCp (mouse 30-F11). Human or mouse anti-IFNγ (mouse XMG1.2 and human 4S.B3), anti-TNFα (mouse MP6-XT22 and human MAB11), anti-IL-17A (mouse eBio17B7 and human eBio64DEC17), anti-IL-22 (mouse 1H8PWSR and human 22URTI), and anti-Foxp3 (mouse FJK-16s and human 36A/E7), all PE or APC conjugated, were purchased from eBioscience (San Diego, CA). Human and mouse APC conjugated CD1d tetramers pre-loaded with alpha-GalCer and negative controls were obtained from ProImmune. […] Cells were stained with fluorescence-labeled antibodies for surface marker, then fixed/permeabilized (eBioscience) and stained with antibodies for intracellular cytokines. […] The data were acquired on a FACS Calibur (BD Bioscience) and analyzed using FlowJo software (Tree Star, San Carlos, CA).
Human γδ^+ T cells were analyzed only through flow cytometry. […]

[2] = test system: CD4+ T cells from draining lymph nodes restimulated with OVA; experiment: In vivo mouse Th17 differentiation (OVA/CFA) and in vitro restimulation; format: cell-based; conditions: 1 μM, OVA restimulation
Text: as §1, with “Carlos, CA). […]” for “Carlos, CA).”

[3] = test system: iNKT cells from human PBMCs; experiment: Human NKT cell in vitro activation; format: cell-based; conditions: IL-1β/IL-23, 6 days, 1 μM
[4] = test system: human CD4+ CD45RO+ CCR6+ T cells; experiment: Human memory CCR6+ T cells in vitro activation; format: cell-based
Text: The following antibodies (anti-mouse or anti-human) were purchased from BD Biosciences (San Diego, CA) or eBioscience (San Diego, CA): anti-CD3-FITC (mouse 17A2 and human SK7), anti-CD4-allophycocyanin (APC), anti-CD4-PerCp, anti-CD4-FITC, anti-CD4-PE (mouse GK1.5 and human SK3), anti-CD44-PerCp (mouse IM7), anti-γδ TCR-FITC, anti-γδ TCR-PE (mouse GL3 and human B1), anti-CD62L-FITC (mouse MEL-14 and human SK11), anti-CD45RO-APC (human UCHL1), anti-CCR6-PE (human 11A9), anti-CD45-PerCp (mouse 30-F11). Human or mouse anti-IFNγ (mouse XMG1.2 and human 4S.B3), anti-TNFα (mouse MP6-XT22 and human MAB11), anti-IL-17A (mouse eBio17B7 and human eBio64DEC17), anti-IL-22 (mouse 1H8PWSR and human 22URTI), and anti-Foxp3 (mouse FJK-16s and human 36A/E7), all PE or APC conjugated, were purchased from eBioscience (San Diego, CA). Human and mouse APC conjugated CD1d tetramers pre-loaded with alpha-GalCer and negative controls were obtained from ProImmune. For intracellular staining cells were stimulated for 4 hours at 37 °C with PMA and ionomycin (0.5 μg/ml each) in the presence of brefeldin A and monensin or with leukocyte activation cocktail (BD Bioscience, San Diego, CA). Cells were stained with fluorescence-labeled antibodies for surface marker, then fixed/permeabilized (eBioscience) and stained with antibodies for intracellular cytokines. For Foxp3 staining cells were fixed/permeabilized using transcription factor buffer set (eBioscience). The data were acquired on a FACS Calibur (BD Bioscience) and analyzed using FlowJo software (Tree Star, San Carlos, CA).
Human blood samples from healthy donors were provided by the Scripps Research Institute, La Jolla following Institutional Review Board approved protocol. Total CD4^+ T cells were isolated from the peripheral blood mononuclear cells (PBMCs) using a CD4^+ T cell Isolation Kit II (Miltenyl Biotec, Auburn, CA), following the manufacturer’s instructions. CCR6^+ cells were isolated from CD4^+ T cells using phycoerythrin (PE) conjugated anti-CCR6 antibody followed by anti-PE microbeads. Isolated CCR6^+ T cells were resuspended in culture medium and added to a 96-well plate which was pre-coated with 1 μg/ml anti-CD3 (BD Bioscience) at 1 × 10^5 cells per well. […] Cells were cultured at 37 °C and 5% CO2 for 6 days. Supernatants were assayed for accumulated cytokines using MSD multi-spot assay (Meso Scale Discovery, Rockville, MD) or R&D ELISA kit, and cells were used for intracellular staining.

[5] = test system: collagen-induced arthritis in DBA/1Lacj mice; experiment: Mouse collagen-induced arthritis model; format: in vivo; conditions: 60 mg/kg BID oral
Method: Mice (female DBA/1Lacj mice, Jackson Laboratories; 8–10 weeks) were housed with 12 hours light-dark cycle with food and water provided ad libitum. Following acclimation, mice were immunized with an emulsion containing equal amounts of Chick Type II Collagen (Chondrex, Redmond, WA) and Complete-Freund’s adjuvant (CFA, Chondrex), 100 μg each per mouse, on day 0 at the base of the tail and administered a second immunization boost on day 21. On day 21, animals were examined for clinical arthritis scores and randomized into treatment groups. […] The clinical arthritis scores were evaluated from days 21 to 34. Animals were euthanized under CO2 on day 35. Both hind-paws from each animal were collected and fixed in 10% neutral buffered formalin for histopathology. Both front paws were digested after removing the skin in 0.125% (v/v) Dispase II (Roche, Indianapolis, IN), 0.2% collagenase II (Roche, Indianapolis, IN), and 0.2% collagenase IV (Sigma-Aldrich, St. Louis, MO) in HBSS for 75 min at 37 °C and passed through a cell strainer. Cells were then stimulated and analyzed by flow cytometry for cytokine-producing cells.
Tissues were fixed in 10% formalin, sectioned, and stained with H&E for histology at Seventh Wave Laboratories, LLC, (Chesterfield, MO).

T1 sequence (Q92753 212-470): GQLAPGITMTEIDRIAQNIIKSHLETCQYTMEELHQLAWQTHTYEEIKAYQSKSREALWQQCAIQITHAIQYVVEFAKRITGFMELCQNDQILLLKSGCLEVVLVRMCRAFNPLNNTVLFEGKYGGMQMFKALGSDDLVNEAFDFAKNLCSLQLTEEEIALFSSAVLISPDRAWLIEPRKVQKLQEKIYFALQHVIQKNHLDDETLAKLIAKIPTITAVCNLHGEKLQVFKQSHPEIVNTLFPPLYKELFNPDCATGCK

Question: Which results are given for COc1nc2ccc([C@@](O)(c3ccc(C)nc3C)c3cnnn3C)cc2c(Cl)c1Cc1ccc(C(F)(F)F)cc1 [JNJ-54271074]?
Answer: IC50 (RORβ): > 10 µM; inhibition at 1 µM [1]: 56%; IL-17A+ and IL-17A+ IL-22+ CD4+ T cells [2]: significantly suppressed; IL-22 single positive cells [2]: no effect; IL-17A production by iNKT cells from human PBMCs [3]: suppressed; IFNγ production ([4]; 1 μM): slightly increasing; IL-22, TNFα and GM-CSF production ([4]; 1 μM): trend of decreasing; increase of IL-10 production over the control ([4]; 1 μM): 49%; number of IL-17A-producing cells (single- and double-positive) ([4]; 1 μM, flow cytometry): significantly decreased; inhibition at 1 µM ([4]; Homo sapiens, T-cell, vs DMSO control, non-polarizing activation, read-out: inhibition of IL-17A production): 77%; reduction of AUC for disease score [5]: 79%; decrease of IL-17A-producing CD3+ cell population in paws ([5]; day 35): ~ 70%; inflammation, cartilage damage and bone destruction compared with vehicle ([5]; hind paws histology): significantly reduced; reduction of total histopathology score ([5]; hind paws, day 35): 80%
